Experimental data published in US11713335B2, “Aminocoumarin compounds and methods of their use” (President and Fellows of Harvard College, priority 2018, dated 2023).
Values after ≈ are worked out from the molar mass of the structure shown. Read-outs that look alike come from different tables or passages of the source.

Assays:
[1] = tested on: WT E. coli; assay: Minimal inhibitory concentration in wild-type E. coli; assay type: cell-based, Escherichia coli; conditions: wild-type E. coli, 37° C., 16 hours, read-out: MIC (μM) in WT E. coli
Description: General Procedure for Determination of Minimal Inhibitory Concentrations
Overnight cultures (5 mL) of bacterial strains were grown in LB media or TSA media (for S. aureus) at 37° C. and with shaking at 220 rpm until saturation. The overnight culture was diluted serially 1:100 (50 μL in 5 mL sterile media) and then 1:100 (250 μL in 25 mL sterile media). The 25 mL of diluted culture was then dispensed to a sterile 96 well plate (Corning #3370). 198 μL of culture were dispensed into row A and 100 μL of this culture were dispensed into rows B-H. Aminocoumarin compound (DMSO stock) were added to the first row and then the row was mixed by pipetting. 100 μL of culture from row A were transferred to row B and the serial dilution continued until the final 100 μL from row H were discarded. The plate was incubated without shaking in a 37° C. for 16 hours and then read by visible light spectrophotometer (Molecular Devices) at 600 nm. The minimal inhibitory concentration (MIC) was determined as the lowest concentration of compound concentration that inhibited the growth of bacteria.

[2] = tested on: S. aureus RN4220; assay: Minimal inhibitory concentration, S. aureus RN4220; assay type: cell-based; conditions: 16 hour minimal inhibitory concentration at 37° C., read-out: MIC (μM) S. aureus RN4220
Procedure, shortened: (§1)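 Saturated overnight cultures in LB (TSA for S. aureus), grown at 37 °C with shaking, were diluted 1:100 twice and exposed to twofold serial dilutions of compound from DMSO stock. After 16 h static incubation at 37 °C, OD600 was read; MIC is the lowest concentration inhibiting growth, reported in µM.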

[3] = tested on: S. aureus MW2; assay: Minimal inhibitory concentration, S. aureus MW2; assay type: cell-based; conditions: 16 hour minimal inhibitory concentration at 37° C., read-out: MIC (μM) S. aureus MW2 (MRSA)
Procedure, shortened: as §1

[4] = tested on: E. cloacae 13047; assay: Minimal inhibitory concentration, E. cloacae 13047; assay type: cell-based; conditions: 16 hour minimal inhibitory concentration at 37° C., read-out: MIC (μM) E. cloacae 13047
Procedure, shortened: as §1

[5] = tested on: A. baumannii 19606; assay: Minimal inhibitory concentration, A. baumannii 19606; assay type: cell-based; conditions: 16 hour minimal inhibitory concentration at 37° C., read-out: MIC (μM) A. baumannii 19606
Procedure, shortened: as §1

[6] = tested on: K. pneumoniae 700721; assay: Minimal inhibitory concentration, K. pneumoniae 700721; assay type: cell-based; conditions: 16 hour minimal inhibitory concentration at 37° C., read-out: MIC (μM) K. pneumoniae 700721
Procedure, shortened: as §1

[7] = tested on: E. coli MC4100; assay: Minimal inhibitory concentration, E. coli MC4100; assay type: cell-based; conditions: 16 hour minimal inhibitory concentration at 37° C., read-out: MIC (μM) E. coli MC4100 ara+
Procedure, shortened: as §1

[8] = tested on: E. coli 25922; assay: Minimal inhibitory concentration, E. coli 25922; assay type: cell-based; conditions: 16 hour minimal inhibitory concentration at 37° C., read-out: MIC (μM) E. coli 25922
Procedure, shortened: as §1

[9] = Staphylococcus aureus, RN4220, 16 h
[10] = Staphylococcus aureus, MRSA, 16 h
[11] = Acinetobacter baumannii, 19606, 16 h

SMILES	MIC [1] [µM]	MIC [2] [µM]	MIC [3] [µM]	MIC [4] [µM]	MIC [5] [µM]	MIC [6] [µM]	MIC [7] [µM]	MIC [8] [µM]	MIC ([1]; Escherichia coli) [µM]	MIC [2, 9] [µM]	MIC [3, 10] [µM]	MIC ([4]; Enterobacter cloacae, 13047) [µM]	MIC [5, 11] [µM]	MIC ([6]; Klebsiella pneumoniae, 700721) [µM]	MIC ([7]; Escherichia coli, MC4100, 16 h) [µM]	MIC ([8]; Escherichia coli, 25922, 16 h) [µM]
CO[C@@H]1[C@@H](OC(N)=O)[C@@H](O)[C@H](Oc2ccc3c(O)c(NC(=O)c4ccc(O)c(-c5ccccc5)c4)c(=O)oc3c2C)OC1(C)C [Compound 83]	26 (≈ 16.1 µg/mL)	3 (≈ 1.86 µg/mL)	2.5 (≈ 1.55 µg/mL)	>100	20 (≈ 12.4 µg/mL)	>100	26 (≈ 16.1 µg/mL)	40 (≈ 24.8 µg/mL)	–	–	–	–	–	–	–	–
CO[C@@H]1[C@@H](OC(N)=O)[C@@H](O)[C@H](Oc2ccc3c(O)c(NC(=O)c4cc(-c5ccc(F)cc5)cc(O)c4O)c(=O)oc3c2C)OC1(C)C [Compound 97]	>300	76 (≈ 49.7 µg/mL)	38 (≈ 24.9 µg/mL)	>100	>50	>100	>200	153 (≈ 100 µg/mL)	–	–	–	–	–	–	–	–
CO[C@@H]1[C@@H](OC(N)=O)[C@@H](O)[C@H](Oc2ccc3c(O)c(NC(=O)c4cccc(-c5cccs5)c4)c(=O)oc3c2C)OC1(C)C [Compound 22]	–	–	–	–	–	–	–	–	89 (≈ 54.3 µg/mL)	10 (≈ 6.11 µg/mL)	10 (≈ 6.11 µg/mL)	> 100	> 50	> 100	89 (≈ 54.3 µg/mL)	164 (≈ 100 µg/mL)
CO[C@@H]1[C@@H](OC(N)=O)[C@@H](O)[C@H](Oc2ccc3c(O)c(NC(=O)c4cc(O)cc(-c5ccccc5)c4)c(=O)oc3c2C)OC1(C)C [Compound 78]	59 (≈ 36.6 µg/mL)	5 (≈ 3.1 µg/mL)	4 (≈ 2.48 µg/mL)	>100	40 (≈ 24.8 µg/mL)	>100	59 (≈ 36.6 µg/mL)	40 (≈ 24.8 µg/mL)	–	–	–	–	–	–	–	–
CO[C@@H]1[C@@H](OC(N)=O)[C@@H](O)[C@H](Oc2ccc3c(O)c(NC(=O)c4cc(-c5ccccc5)c(O)cc4O)c(=O)oc3c2C)OC1(C)C [Compound 67]	18 (≈ 11.5 µg/mL)	10 (≈ 6.37 µg/mL)	5 (≈ 3.18 µg/mL)	>100	>50	79 (≈ 50.3 µg/mL)	18 (≈ 11.5 µg/mL)	5 (≈ 3.18 µg/mL)	–	–	–	–	–	–	–	–
CO[C@@H]1[C@@H](OC(N)=O)[C@@H](O)[C@H](Oc2ccc3c(O)c(NC(=O)c4ccc(O)cc4)c(=O)oc3c2C)OC1(C)C [Compound 30]	–	–	–	–	–	–	–	–	> 300	46 (≈ 25 µg/mL)	46 (≈ 25 µg/mL)	> 100	> 50	> 100	> 200	> 200
CO[C@@H]1[C@@H](OC(N)=O)[C@@H](O)[C@H](Oc2ccc3c(O)c(NC(=O)c4c[nH]c5ccccc45)c(=O)oc3c2C)OC1(C)C [Compound 17]	–	–	–	–	–	–	–	–	> 300	44 (≈ 25 µg/mL)	22 (≈ 12.5 µg/mL)	> 100	> 50	> 100	> 200	> 200
CO[C@@H]1[C@@H](OC(N)=O)[C@@H](O)[C@H](Oc2ccc3c(O)c(NC(=O)c4cccc(-c5cccc(O)c5O)c4)c(=O)oc3c2C)OC1(C)C [Compound 99]	>300	79 (≈ 50.3 µg/mL)	79 (≈ 50.3 µg/mL)	>100	>50	>100	>200	>200	–	–	–	–	–	–	–	–
COc1ccccc1-c1cccc(C(=O)Nc2c(O)c3ccc(O[C@@H]4OC(C)(C)[C@H](OC)[C@@H](OC(N)=O)[C@H]4O)c(C)c3oc2=O)c1 [Compound 50]	40 (≈ 25.4 µg/mL)	19 (≈ 12.1 µg/mL)	10 (≈ 6.35 µg/mL)	>100	>50	>100	40 (≈ 25.4 µg/mL)	39 (≈ 24.8 µg/mL)	–	–	–	–	–	–	–	–
CO[C@@H]1[C@@H](OC(N)=O)[C@@H](O)[C@H](Oc2ccc3c(O)c(NC(=O)c4cccc(-c5ccc(I)cc5)c4)c(=O)oc3c2C)OC1(C)C [Compound 34]	–	–	–	–	–	–	–	–	59 (≈ 43.1 µg/mL)	0.43 (≈ 0.314 µg/mL)	0.43 (≈ 0.314 µg/mL)	> 100	9 (≈ 6.57 µg/mL)	> 100	59 (≈ 43.1 µg/mL)	68 (≈ 49.7 µg/mL)
